Source: the supplement of paper PMC10307832

Columns and labels:
Experiment in all cases: relative viability (nuclei count vs DMSO), 5 days (fraction); higher = more cells survive
Gemcitabine + Crizotinib = compound: Nc1ccn([C@@H]2O[C@H](CO)[C@@H](O)C2(F)F)c(=O)n1 [Gemcitabine] + C[C@@H](Oc1cc(-c2cnn(C3CCNCC3)c2)cnc1N)c1c(Cl)ccc(F)c1Cl [Crizotinib] (partner 1 µM)
Outline: (§1)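 Lung cancer cell lines were seeded in 1536-well plates and dosed by pin tool the next day, with either a single drug or a fixed anchor-drug dose combined with five library-drug doses (not always all listed) spaced in √10 steps. Five days later, one step fixed the cells and stained their nuclei (final 0.05% Triton X-100, 1% formaldehyde, 1 ug/ml Hoechst), and nuclei were counted on 4× images. Relative viability is the nuclei count in treated wells divided by the count in vehicle wells, and each value is the median of duplicate plates.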

Gemcitabine + Vorinostat = compound: Nc1ccn([C@@H]2O[C@H](CO)[C@@H](O)C2(F)F)c(=O)n1 [Gemcitabine] + O=C(CCCCCCC(=O)Nc1ccccc1)NO [Vorinostat] (partner 1 µM)
Outline: as §1

Gemcitabine + Navitoclax = compound: Nc1ccn([C@@H]2O[C@H](CO)[C@@H](O)C2(F)F)c(=O)n1 [Gemcitabine] + CC1(C)CCC(c2ccc(Cl)cc2)=C(CN2CCN(c3ccc(C(=O)NS(=O)(=O)c4ccc(N[C@H](CCN5CCOCC5)CSc5ccccc5)c(S(=O)(=O)C(F)(F)F)c4)cc3)CC2)C1 [Navitoclax] (partner 0.5 µM)
Outline: as §1

Gemcitabine + Dasatinib = compound: Nc1ccn([C@@H]2O[C@H](CO)[C@@H](O)C2(F)F)c(=O)n1 [Gemcitabine] + Cc1nc(Nc2ncc(C(=O)Nc3c(C)cccc3Cl)s2)cc(N2CCN(CCO)CC2)n1 [Dasatinib] (partner 0.075 µM)
Outline: as §1

Row | Cell Line | relative viability (Gemcitabine + Crizotinib; first compound 0.001 µM) | relative viability (Gemcitabine + Crizotinib; first compound 0.003162 µM) | relative viability (Gemcitabine + Crizotinib; first compound 0.01 µM) | relative viability (Gemcitabine + Crizotinib; first compound 0.03162 µM) | relative viability (Gemcitabine + Crizotinib; first compound 0.1 µM) | relative viability (Gemcitabine + Vorinostat; first compound 0.001 µM) | relative viability (Gemcitabine + Vorinostat; first compound 0.003162 µM) | relative viability (Gemcitabine + Vorinostat; first compound 0.01 µM) | relative viability (Gemcitabine + Vorinostat; first compound 0.03162 µM) | relative viability (Gemcitabine + Vorinostat; first compound 0.1 µM) | relative viability (Gemcitabine + Navitoclax; first compound 0.001 µM) | relative viability (Gemcitabine + Navitoclax; first compound 0.003162 µM) | relative viability (Gemcitabine + Navitoclax; first compound 0.01 µM) | relative viability (Gemcitabine + Navitoclax; first compound 0.03162 µM) | relative viability (Gemcitabine + Navitoclax; first compound 0.1 µM) | relative viability (Gemcitabine + Dasatinib; first compound 0.001 µM) | relative viability (Gemcitabine + Dasatinib; first compound 0.003162 µM) | relative viability (Gemcitabine + Dasatinib; first compound 0.01 µM) | relative viability (Gemcitabine + Dasatinib; first compound 0.03162 µM) | relative viability (Gemcitabine + Dasatinib; first compound 0.1 µM)
1 | H3255 | 0.97 | 0.439 | 0.63 | 0.167 | 0.176 | 0.834 | 0.848 | 0.289 | 0.296 | 0.251 | 0.558 | 0.404 | 0.135 | 0.121 | 0.106 | 0.333 | 0.38 | 0.349 | 0.225 | 0.296
2 | EPLC-272H | 0.766 | 0.847 | 0.196 | 0.175 | 0.0681 | 0.25 | 0.29 | 0.254 | 0.112 | 0.056 | 1.14 | 0.953 | 0.395 | 0.0915 | 0.07 | 0.421 | 0.433 | 0.153 | 0.112 | 0.0503
3 | PC-3 [JPC-3] | 1 | 0.838 | 0.611 | 0.295 | 0.246 | 0.659 | 0.536 | 0.36 | 0.338 | 0.366 | 0.81 | 0.688 | 0.504 | 0.448 | 0.281 | 1.01 | 0.925 | 0.635 | 0.252 | 0.207
4 | NCI-H1793 |  |  |  |  |  | 0.985 | 0.62 | 0.152 | 0.148 | 0.106 | 0.488 | 0.474 | 0.169 | 0.216 | 0.151 | 0.368 | 0.388 | 0.186 | 0.12 | 0.12
5 | EKVX | 1 | 0.872 | 0.387 | 0.169 | 0.159 | 0.747 | 0.686 | 0.618 | 0.27 | 0.217 | 0.93 | 0.89 | 0.0897 | 0.133 | 0.0934 | 0.471 | 0.658 | 0.546 | 0.232 | 0.172
6 | ChaGo-K-1 | 1.12 | 0.961 | 0.578 | 0.36 | 0.314 | 0.772 | 0.68 | 0.301 | 0.201 | 0.177 | 0.939 | 0.443 | 0.361 | 0.26 | 0.266 | 0.535 | 0.544 | 0.205 | 0.144 | 0.166
7 | NCI-H23 | 0.297 | 0.206 | 0.12 | 0.131 | 0.152 | 0.504 | 0.122 | 0.11 | 0.106 | 0.109 | 0.866 | 0.245 | 0.125 | 0.139 | 0.124 | 0.865 | 0.36 | 0.126 | 0.135 | 0.1
8 | EMC-BAC-2 | 0.778 | 0.768 | 0.594 | 0.14 | 0.149 | 0.343 | 0.402 | 0.234 | 0.148 | 0.198 | 1.21 | 1.17 | 1.11 | 0.147 | 0.136 | 0.348 | 0.352 | 0.181 | 0.124 | 0.137
9 | LOU-NH91 | 0.715 | 0.594 | 0.451 | 0.286 | 0.271 | 0.943 | 0.761 | 0.421 | 0.22 | 0.268 | 0.717 | 0.448 | 0.292 | 0.213 | 0.213 | 0.545 | 0.28 | 0.455 | 0.244 | 0.242
10 | LU99A | 0.577 | 0.648 | 0.567 | 0.567 | 0.562 | 0.509 | 0.577 | 0.502 | 0.523 | 0.531 | 0.875 | 0.976 | 0.667 | 0.871 | 0.474 | 0.555 | 0.56 | 0.558 | 0.516 | 0.507
11 | NCI-H1395 |  |  |  |  |  | 0.593 | 0.517 | 0.384 | 0.331 | 0.345 | 1.05 | 0.859 | 0.525 | 0.61 | 0.414 | 0.409 | 0.368 | 0.371 | 0.321 | 0.31
12 | NCI-H460 | 1.12 | 0.894 | 0.528 | 0.0182 | 0.0089 | 0.855 | 0.736 | 0.458 | 0.0301 | 0.0175 | 1.09 | 1.05 | 0.533 | 0.0127 | 0.0085 | 0.495 | 0.524 | 0.46 | 0.0224 | 0.0058
13 | 201T | 1.04 | 1.01 | 0.975 | 0.464 | 0.329 | 0.999 | 1.04 | 0.93 | 0.43 | 0.253 | 1.17 | 1.24 | 1.24 | 1.19 | 0.494 | 0.551 | 0.654 | 0.472 | 0.32 | 0.29
14 | NCI-H1944 | 1.28 | 1.02 | 0.953 | 0.304 | 0.141 | 0.59 | 0.572 | 0.321 | 0.192 | 0.131 | 1.11 | 1.01 | 0.897 | 0.692 | 0.209 | 0.208 | 0.209 | 0.182 | 0.153 | 0.123
15 | NCI-H2405 | 0.846 | 0.775 | 0.564 | 0.245 | 0.22 | 1.03 | 0.784 | 0.543 | 0.243 | 0.197 | 0.992 | 0.551 | 0.0966 | 0.084 | 0.0831 | 0.2 | 0.196 | 0.199 | 0.151 | 0.159
16 | NCI-H1703 | 0.588 | 0.208 | 0.11 | 0.125 | 0.0932 |  |  |  |  |  | 0.73 | 0.178 | 0.141 | 0.118 | 0.102 |  |  |  |  | 
17 | NCI-H1755 | 0.92 | 0.845 | 0.681 | 0.268 | 0.218 | 0.804 | 0.751 | 0.599 | 0.469 | 0.313 | 0.925 | 1.04 | 0.827 | 0.256 | 0.153 | 0.454 | 0.457 | 0.392 | 0.243 | 0.207
